Consider 16 molecules from ChEMBL document CHEMBL1130043, “Chemometric methodologies in a quantitative structure-activity relationship study: the antibacterial activity of 6-aminoquinolones” (1997).

Holding throughout (assay type): functional
Experiment [1] concerns Escherichia coli. Nature of the experiment: Antibacterial activity against Escherichia coli ATCC 8739(Gram negative) strain.
Experiment [2] has as its system Escherichia coli. Nature of the experiment: Antibacterial activity against Escherichia coli ISF 432(Gram negative) strain.
In experiment [3] the test system is Enterobacter cloacae. In words: Antibacterial activity against Enterobacter cloacae OMNFI 174 (Gram negative) strain.
The subject of experiment [4] is Klebsiella pneumoniae. In words: Antibacterial activity against Klebsiella pneumoniae ATCC 10031 (Gram negative) strain.
Experiment [5] concerns Providencia stuartii. In words: Antibacterial activity against Providencia stuartii CNUR 5(Gram negative) strain.
Experiment [6] has as its system Pseudomonas aeruginosa. In words: Antibacterial activity against Pseudomonas aeruginosa ATCC 9027(Gram negative) strain.
Experiment [7] has as its system Shigella. Nature of the experiment: Antibacterial activity against Shigella enteritidis (Gram negative) strain.
The test system of experiment [8] is Staphylococcus epidermidis. Nature of the experiment: Antibacterial activity against Staphylococcus epidermidis HCF Berset C (Gram positive) strain.
Experiment [9] has as its system Staphylococcus epidermidis. Nature of the experiment: The compound was tested in vitro for antibacterial activity against Staphylococcus epidermidis CPHL A2 (Gram positive) strain.
The test system of experiment [10] is Staphylococcus aureus. Nature of the experiment: Antibacterial activity against Staphylococcus aureus MPR 5 (Gram positive) strain.
The test system of experiment [11] is Enterococcus faecalis. In words: Antibacterial activity against Streptococcus faecalis LEP Br (Gram positive) strain.
For experiment [12], the system named is Staphylococcus aureus. In words: Antibacterial activity against Staphylococcus aureus ATCC 6538 (Gram positive) strain.
Experiment [13] has as its system Acinetobacter calcoaceticus. Nature of the experiment: Antibacterial activity against Acinetobacter calcoaceticus OSMPV 113 (Gram negative) strain.
Experiment [14] relates to Staphylococcus epidermidis. In words: Antibacterial activity against Staphylococcus epidermidis CPHL A2 (Gram positive) strain, activity is expressed as log2MIC.

Take `Cc1c(N2CCN(C)CC2)c(N)cc2c(=O)c(C(=O)O)cn(C3CC3)c12`: the “Log2 MIC” value in experiment [1] was found to be 12; in experiment [2], 12; in experiment [3], 10; in [4] it was 12; in [5], 6; in experiment [6], 6. The “Log2 MIC” value in [7] is given as 11; in [8] it was 7; in experiment [9], 7; in [10] it was 8; in experiment [11], 5; in experiment [12] it was 8.

On to `CC(=O)NC1CCN(c2c(N)cc3c(=O)c(C(=O)O)cn(C4CC4)c3c2C)C1` (stereo not given), for which the “Log2 MIC” value in experiment [13] is given as 5; in experiment [1], 10; in [2], 10; in experiment [3], 5; in [4] it was 9; in experiment [5] it was 2. Besides, the “Log2 MIC” value in [6] is 3; in experiment [7], 5; in experiment [8], 3; in experiment [9] it was 3; in experiment [10], 3; in [11], 1. In addition, the “Log2 MIC” value in [12] is 3.

`NCCSc1cc2c(cc1N)c(=O)c(C(=O)O)cn2C1CC1`: the “Log2 MIC” value in [13] is reported as 0; in experiment [1], 7; in experiment [2] it was 7; in experiment [3], 0; in [4], 6; in experiment [5], 0. The “Log2 MIC” value in experiment [6], in experiment [7], in [8], in [14], in experiment [10] and in [11] was 0 each time. In addition, the “Log2 MIC” value in [12] is 0.

With `CN1CCN(c2cc3c(c(N)c2N)c(=O)c(C(=O)O)cn3C2CC2)CC1`, the “Log2 MIC” value was 0 in experiment [13]; 3 in experiment [1]; 3 in [2]; 0 in [3]; 2 in experiment [4]; 0 in experiment [5]. Further, the “Log2 MIC” value in [6], in [7], in experiment [8], in experiment [14], in experiment [10] and in experiment [11] was 0 throughout. Moreover, the “Log2 MIC” value in experiment [12] is listed as 0.

`CC(=O)NC1CCN(c2cc3c(cc2N)c(=O)c(C(=O)O)cn3C2CC2)C1` (stereo not given): the “Log2 MIC” value in experiment [13] is on record as 0; in experiment [1], 5; in [2] it was 5; in experiment [3], 0; in [4], 5; in [5], 0. The “Log2 MIC” value in experiment [6], in experiment [7], in [8], in [9], in [10] and in experiment [11] was 0 in each case. The “Log2 MIC” value in experiment [12] is given as 0.

For `Cc1c(N2CCOCC2)c(N)cc2c(=O)c(C(=O)O)cn(C3CC3)c12`, the “Log2 MIC” value in [1] is recorded as 12; in experiment [2], 12; in [3] it was 10; in experiment [4], 12; in experiment [5] it was 8; in [6], 7. In addition, the “Log2 MIC” value in experiment [7] is listed as 10; in [8], 10; in experiment [9], 9; in experiment [10] it was 10; in experiment [11], 7; in [12], 10.

Take `Nc1cc2c(=O)c(C(=O)O)cn(-c3ccc(F)cc3)c2cc1N1CCSCC1`: the “Log2 MIC” value in experiment [13] is given as 5; in experiment [1], 11; in [2], 12; in experiment [3] it was 5; in experiment [4], 12; in experiment [5], 5. The “Log2 MIC” value was 0 in experiment [6]; 5 in [7]; 5 in experiment [8]; 5 in experiment [14]; 7 in experiment [10]; 0 in experiment [11]. For the same molecule, the “Log2 MIC” value in experiment [12] came out at 8.

Regarding `CN1CCN(c2cc3c(cc2N)c(=O)c(C(=O)O)cn3-c2ccc(F)cc2)CC1`, the “Log2 MIC” value is on record as 3 in [13]; 10 in [1]; 10 in experiment [2]; 5 in [3]; 10 in [4]; 5 in experiment [5]. In addition, the “Log2 MIC” value in [6] is recorded as 4; in experiment [7] it was 5; in [8], 4; in experiment [14], 4; in experiment [10], 5; in experiment [11], 1. Besides, the “Log2 MIC” value in experiment [12] turned out to be 4.

Take `Cc1c(N2CCC(O)CC2)c(N)cc2c(=O)c(C(=O)O)cn(C3CC3)c12`: the “Log2 MIC” value in [13] was 10; in [1], 7; in experiment [2], 12; in experiment [3], 8; in experiment [4] it was 12; in [5] it was 7. The “Log2 MIC” value is 6 in experiment [6]; 9 in experiment [7]; 11 in experiment [8]; 11 in [9]; 10 in experiment [10]; 8 in [11]. The “Log2 MIC” value in [12] turned out to be 11.

`CN1CCN(c2cc3c(cc2N)c(=O)c(C(=O)O)cn3C(C)(C)C)CC1`: the “Log2 MIC” value in experiment [13] is given as 5; in [1], 11; in experiment [2], 11; in [3], 7; in [4] it was 11; in experiment [5], 5. Besides, the “Log2 MIC” value in experiment [6] worked out at 5; in experiment [7], 7; in experiment [8] it was 5; in experiment [14], 6; in experiment [10], 6; in [11] it was 2. For the same molecule, in experiment [12], the “Log2 MIC” value came to 6.

`Cc1c(N2Cc3ccccc3C2)c(N)cc2c(=O)c(C(=O)O)cn(C3CC3)c12`: the “Log2 MIC” value in experiment [1] was determined as 13; in [2], 13; in experiment [3], 9; in [4] it was 11; in [5] it was 11; in experiment [6] it was 8. Also, the “Log2 MIC” value is given as 9 in experiment [7]; 12 in [8]; 13 in [9]; 13 in [10]; 9 in [11]; 13 in experiment [12].

As for `Cc1c(N2CCCC2)c(N)cc2c(=O)c(C(=O)O)cn(C3CC3)c12`, the “Log2 MIC” value is 3 in experiment [13]; 2 in experiment [1]; 7 in experiment [2]; 1 in experiment [3]; 8 in experiment [4]; 1 in experiment [5]. Moreover, the “Log2 MIC” value in experiment [6] is reported as 0; in experiment [7], 1; in [8], 3; in [9], 3; in experiment [10], 5; in experiment [11] it was 1. In [12], the “Log2 MIC” value came out at 5.

Consider `Nc1cc2c(=O)c(C(=O)O)cn(C3CC3)c2cc1N1CCC(N)C1` (stereo not given), for which the “Log2 MIC” value is recorded as 0 in experiment [13]; 7 in experiment [1]; 8 in [2]; 3 in experiment [3]; 7 in [4]; 0 in experiment [5]. Besides, the “Log2 MIC” value was 3 in experiment [6]; 3 in [7]; 0 in experiment [8]; 0 in experiment [9]; 0 in experiment [10]; 0 in [11]. In experiment [12], the “Log2 MIC” value is given as 0.

Regarding `CN1CCN(c2nc3c(c(N)c2N)c(=O)c(C(=O)O)cn3C2CC2)CC1`, the “Log2 MIC” value is 8 in experiment [13]; 9 in experiment [1]; 13 in [2]; 9 in experiment [3]; 13 in experiment [4]; 8 in experiment [5]. Further, the “Log2 MIC” value in experiment [6] is on record as 4; in [7], 8; in experiment [8], 6; in [9], 6; in [10] it was 6; in experiment [11], 4. Besides, in experiment [12], the “Log2 MIC” value was found to be 6.

As to `Cc1c(N2CCSCC2)c(N)cc2c(=O)c(C(=O)O)cn(C3CC3)c12`, the “Log2 MIC” value is reported as 10 in experiment [13]; 9 in experiment [1]; 12 in experiment [2]; 9 in experiment [3]; 12.5 in [4]; 6 in [5]. Also, the “Log2 MIC” value in experiment [6] is given as 7; in [7] it was 10; in [8], 10; in [9] it was 10; in experiment [10], 11; in [11], 8. Moreover, in [12], the “Log2 MIC” value is 11.

For the molecule `Cc1c(N2CCNC(C)C2)c(N)cc2c(=O)c(C(=O)O)cn(C3CC3)c12` (stereo not given), the “Log2 MIC” value in experiment [13] is 6; in experiment [1], 10; in experiment [2], 12; in [3] it was 10; in [4], 12; in experiment [5], 6. Also, the “Log2 MIC” value in experiment [6] worked out at 7; in [7] it was 11; in [8] it was 7; in experiment [9], 7; in experiment [10], 7; in experiment [11], 5. Moreover, in experiment [12], the “Log2 MIC” value is given as 7.
